ChEMBL document CHEMBL4616702 (ACS Med Chem Lett, 2020)

Legend:
Cytochrome P450 1A2 = target: T1, Cytochrome P450 1A2 (Homo sapiens, UniProt P05177); assay: Inhibition of recombinant CYP1A2 (unknown origin); type: ADME
T1 sequence (P05177 whole entry): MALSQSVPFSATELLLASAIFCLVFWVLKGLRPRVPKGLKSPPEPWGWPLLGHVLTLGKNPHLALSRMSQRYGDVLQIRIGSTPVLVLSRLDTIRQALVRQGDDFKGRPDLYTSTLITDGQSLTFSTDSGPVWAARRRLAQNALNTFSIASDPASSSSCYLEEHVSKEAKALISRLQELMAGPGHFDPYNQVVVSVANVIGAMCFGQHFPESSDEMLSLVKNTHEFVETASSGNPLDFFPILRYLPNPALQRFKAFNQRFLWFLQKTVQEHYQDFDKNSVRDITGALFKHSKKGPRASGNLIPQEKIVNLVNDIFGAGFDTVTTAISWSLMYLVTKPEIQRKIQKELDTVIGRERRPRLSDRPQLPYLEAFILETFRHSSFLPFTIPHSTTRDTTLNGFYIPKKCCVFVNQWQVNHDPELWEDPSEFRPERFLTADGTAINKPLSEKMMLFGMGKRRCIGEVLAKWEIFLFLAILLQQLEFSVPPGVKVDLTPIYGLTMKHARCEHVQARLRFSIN

Cytochrome P450 2C19 = Cytochrome P450 2C19 (Homo sapiens, UniProt P33261); assay: Inhibition of recombinant CYP2C19 (unknown origin); type: ADME
[1] = Oral bioavailability in cynomolgus monkey at 1 mg/kg; type: ADME, organism-based, Macaca fascicularis; conditions: in vivo
[2] = Half life in mouse at 2 mg/kg, iv; type: ADME, organism-based; conditions: in vivo
Cytochrome P450 3A4 = Cytochrome P450 3A4 (Homo sapiens, UniProt P08684); assay: Inhibition of recombinant CYP3A4 (unknown origin); type: ADME
[3] = Half life in rat liver microsomes in presence of NADPH by LC/MS/MS metho; type: ADME, Microsome; conditions: liver microsomes
[4] = target: T2, Nuclear receptor subfamily 1 group I member 2 (Homo sapiens, UniProt O75469); assay: Inverse agonist activity at PXR (unknown origin)
T2 sequence (O75469 whole entry): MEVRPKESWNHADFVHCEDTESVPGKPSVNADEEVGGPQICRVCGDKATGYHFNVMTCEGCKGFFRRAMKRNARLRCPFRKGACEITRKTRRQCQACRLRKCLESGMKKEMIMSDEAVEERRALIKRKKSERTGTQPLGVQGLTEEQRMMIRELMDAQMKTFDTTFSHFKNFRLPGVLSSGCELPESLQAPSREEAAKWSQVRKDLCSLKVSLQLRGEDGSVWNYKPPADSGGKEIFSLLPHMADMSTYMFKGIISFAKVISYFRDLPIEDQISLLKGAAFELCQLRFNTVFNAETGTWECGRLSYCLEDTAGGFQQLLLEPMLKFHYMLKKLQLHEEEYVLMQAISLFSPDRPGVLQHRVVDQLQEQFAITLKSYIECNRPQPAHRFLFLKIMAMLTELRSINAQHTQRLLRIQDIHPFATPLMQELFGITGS

[5] = Oral bioavailability in mouse at 4 mg/kg; type: ADME, organism-based; conditions: in vivo
[6] = target: T3, Nuclear receptor ROR-beta (Homo sapiens, UniProt Q92753); assay: Inverse agonist activity at Gal4-fused RORbeta (unknown origin)
T3 sequence (Q92753 whole entry): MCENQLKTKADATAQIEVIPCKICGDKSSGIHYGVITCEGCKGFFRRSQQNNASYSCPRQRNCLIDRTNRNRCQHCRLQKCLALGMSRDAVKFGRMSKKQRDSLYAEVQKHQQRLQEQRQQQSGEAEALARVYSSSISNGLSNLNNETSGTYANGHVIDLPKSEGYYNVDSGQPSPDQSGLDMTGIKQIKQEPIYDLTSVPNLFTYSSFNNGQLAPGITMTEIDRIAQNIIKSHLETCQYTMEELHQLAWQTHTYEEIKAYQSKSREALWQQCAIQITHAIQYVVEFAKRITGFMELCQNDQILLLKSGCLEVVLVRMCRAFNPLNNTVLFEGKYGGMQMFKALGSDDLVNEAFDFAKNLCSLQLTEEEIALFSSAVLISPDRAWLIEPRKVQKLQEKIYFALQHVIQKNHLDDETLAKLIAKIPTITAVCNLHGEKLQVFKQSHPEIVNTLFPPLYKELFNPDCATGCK

Cytochrome P450 2D6 = Cytochrome P450 2D6 (Homo sapiens, UniProt P10635); assay: Inhibition of recombinant CYP2D6 (unknown origin); type: ADME
[7] = Fraction unbound in rat plasma; type: ADME, cell-free
[8] = Clearance in dog at 1 mg/kg, iv; type: ADME, organism-based, Canis lupus familiaris; conditions: in vivo
[9] = Fraction unbound in human plasma; type: ADME, cell-free
[10] = Clearance in mouse at 2 mg/kg, iv; type: ADME, organism-based; conditions: in vivo
[11] = Half life in mouse liver microsomes in presence of NADPH by LC/MS/MS method; type: ADME, Microsome; conditions: liver microsomes
[12] = Cmax in rat at 4 mg/kg, po; type: ADME, organism-based; parameters: dose 4 mg/kg, route oral; conditions: in vivo
[13] = target: T4, Nuclear receptor ROR-gamma (Mus musculus, UniProt P51450); assay: Inverse agonist activity at RORgammat in mouse whole blood assessed as suppression of […] secretion; type: tissue-based
T4 sequence (P51450 whole entry): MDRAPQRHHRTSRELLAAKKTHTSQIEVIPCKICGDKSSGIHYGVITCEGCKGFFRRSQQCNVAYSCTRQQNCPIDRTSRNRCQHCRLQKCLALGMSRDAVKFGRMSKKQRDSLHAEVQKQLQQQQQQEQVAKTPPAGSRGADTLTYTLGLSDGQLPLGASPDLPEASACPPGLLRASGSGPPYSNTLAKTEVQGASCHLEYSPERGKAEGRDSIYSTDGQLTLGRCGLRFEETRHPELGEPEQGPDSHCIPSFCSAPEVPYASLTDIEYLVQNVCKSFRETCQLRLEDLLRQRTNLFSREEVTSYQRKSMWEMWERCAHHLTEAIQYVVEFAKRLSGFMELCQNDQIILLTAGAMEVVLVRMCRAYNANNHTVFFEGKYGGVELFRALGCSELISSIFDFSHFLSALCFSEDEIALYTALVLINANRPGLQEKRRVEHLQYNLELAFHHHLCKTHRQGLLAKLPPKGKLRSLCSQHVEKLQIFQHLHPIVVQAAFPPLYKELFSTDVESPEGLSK

[14] = Half life in rat at 2 mg/kg, iv; type: ADME, organism-based; conditions: in vivo
[15] = AUC (0 to 24 hrs) in mouse at 4 mg/kg, po; type: ADME, organism-based; parameters: dose 4 mg/kg, time < 24 hr, route oral; conditions: in vivo
[16] = Cmax in Balb/c mouse at 10 mg/kg, po; type: ADME, organism-based; parameters: dose 10 mg/kg, route oral; conditions: in vivo
[17] = Fraction unbound in mouse plasma; type: ADME, cell-free
[18] = Cmax in dog at 1 mg/kg, po; type: ADME, organism-based, Canis lupus familiaris; parameters: dose 1 mg/kg, route oral; conditions: in vivo
[19] = Half life in dog at 1 mg/kg, iv; type: ADME, organism-based, Canis lupus familiaris; conditions: in vivo
[20] = AUC (0 to 24 hrs) in cynomolgus monkey at 1 mg/kg, po; type: ADME, organism-based, Macaca fascicularis; parameters: dose 1 mg/kg, time < 24 hr, route oral; conditions: in vivo
[21] = Volume of distribution in steady state in dog at 1 mg/kg, iv; type: ADME, organism-based, Canis lupus familiaris; conditions: in vivo, read-out: Vdss
[22] = Volume of distribution in steady state in cynomolgus monkey at 1 mg/kg, iv; type: ADME, organism-based, Macaca fascicularis; conditions: in vivo, read-out: Vdss
[23] = Oral bioavailability in rat at 4 mg/kg; type: ADME, organism-based; conditions: in vivo

Chain of Cytochrome P450 3A4 (P08684 whole entry): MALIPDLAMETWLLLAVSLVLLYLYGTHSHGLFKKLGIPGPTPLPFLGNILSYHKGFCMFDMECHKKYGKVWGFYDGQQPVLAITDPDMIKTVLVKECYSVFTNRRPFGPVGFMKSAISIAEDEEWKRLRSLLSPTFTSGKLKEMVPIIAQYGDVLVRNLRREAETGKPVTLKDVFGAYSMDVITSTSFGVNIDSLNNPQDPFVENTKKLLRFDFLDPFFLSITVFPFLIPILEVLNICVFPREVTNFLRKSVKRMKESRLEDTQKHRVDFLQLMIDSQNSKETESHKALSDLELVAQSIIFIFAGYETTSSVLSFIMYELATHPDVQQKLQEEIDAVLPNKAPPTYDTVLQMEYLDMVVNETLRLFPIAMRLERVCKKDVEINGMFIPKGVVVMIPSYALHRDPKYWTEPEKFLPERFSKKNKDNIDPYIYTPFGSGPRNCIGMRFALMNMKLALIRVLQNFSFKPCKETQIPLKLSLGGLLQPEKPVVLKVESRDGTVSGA
Chain of Cytochrome P450 2D6 (P10635 whole entry): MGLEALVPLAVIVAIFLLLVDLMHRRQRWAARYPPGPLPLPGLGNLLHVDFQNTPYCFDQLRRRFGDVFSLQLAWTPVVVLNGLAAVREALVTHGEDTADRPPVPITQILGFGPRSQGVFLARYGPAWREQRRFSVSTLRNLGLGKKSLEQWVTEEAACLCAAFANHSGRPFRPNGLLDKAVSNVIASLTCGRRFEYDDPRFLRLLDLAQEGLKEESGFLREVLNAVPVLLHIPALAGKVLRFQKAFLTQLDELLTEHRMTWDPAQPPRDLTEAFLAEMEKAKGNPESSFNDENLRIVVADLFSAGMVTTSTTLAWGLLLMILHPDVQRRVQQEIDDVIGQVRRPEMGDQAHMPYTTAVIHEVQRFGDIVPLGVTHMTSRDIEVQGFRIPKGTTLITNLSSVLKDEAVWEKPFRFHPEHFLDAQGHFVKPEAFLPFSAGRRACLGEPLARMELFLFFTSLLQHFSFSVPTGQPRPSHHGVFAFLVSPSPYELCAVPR
Chain of Cytochrome P450 2C19 (P33261 whole entry): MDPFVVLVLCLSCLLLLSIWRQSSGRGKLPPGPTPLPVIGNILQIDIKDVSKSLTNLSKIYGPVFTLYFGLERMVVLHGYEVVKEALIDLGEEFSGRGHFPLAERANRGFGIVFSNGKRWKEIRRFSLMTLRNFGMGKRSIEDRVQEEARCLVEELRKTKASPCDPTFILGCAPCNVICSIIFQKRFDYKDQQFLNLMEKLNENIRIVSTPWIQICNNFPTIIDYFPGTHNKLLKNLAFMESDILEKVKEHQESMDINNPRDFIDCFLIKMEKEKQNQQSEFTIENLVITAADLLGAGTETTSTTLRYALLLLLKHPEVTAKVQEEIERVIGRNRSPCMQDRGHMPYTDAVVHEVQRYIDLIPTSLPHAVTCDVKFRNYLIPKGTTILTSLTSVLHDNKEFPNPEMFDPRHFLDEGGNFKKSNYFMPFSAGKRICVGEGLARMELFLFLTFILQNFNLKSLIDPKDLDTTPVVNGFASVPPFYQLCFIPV

Q: With `C[C@H]1C[C@H](C(=O)O)CC[C@H]1C(=O)N1CC[C@@]2(S(=O)(=O)c3ccc(F)cc3)c3ccc(C(F)(C(F)(F)F)C(F)(F)F)cc3CC[C@@H]12` [BMS-986251] as the compound, how does the IC50 (Cytochrome P450 1A2) read?
A: > 20 µM

Q: And the IC50 (Cytochrome P450 2C19)?
A: > 20 µM

Q: What about the bioavailability [1] of the same compound?
A: 100%

Q: What about the half-life [2] of the same compound?
A: 7.7 h

Q: What about the IC50 (Cytochrome P450 3A4) of the same compound?
A: > 20 µM

Q: What about the half-life [3] of the same compound?
A: > 2 h

Q: What about the EC50 [4] of the same compound?
A: > 5 µM

Q: And the bioavailability [5]?
A: 100%

Q: And the EC50 [6]?
A: > 10 µM

Q: And the IC50 (Cytochrome P450 2D6)?
A: > 20 µM

Q: What about the fraction unbound [7] of the same compound?
A: 0.021

Q: What about the clearance [8] of the same compound?
A: 0.18 mL/min/kg

Q: What about the fraction unbound [9] of the same compound?
A: 0.012

Q: What about the clearance [10] of the same compound?
A: 2.7 mL/min/kg

Q: And the half-life [11]?
A: > 2 h

Q: What about the Cmax [12] of the same compound?
A: 4.7 µM

Q: And the EC50 [13]?
A: 0.011 µM

Q: What about the half-life [14] of the same compound?
A: 11 h

Q: And the AUC(0-t) at 24 h [15]?
A: 37 µM·h

Q: What about the Cmax [16] of the same compound?
A: 11 µM

Q: And the fraction unbound [17]?
A: 0.016

Q: What about the Cmax [18] of the same compound?
A: 6.4 µM

Q: And the half-life [19]?
A: 36 h

Q: And the AUC(0-t) at 24 h [20]?
A: 35 µM·h

Q: And the Vd [21]?
A: 0.5 L/kg

Q: And the Vd [22]?
A: 2 L/kg

Q: And the bioavailability [23]?
A: 94%
